Experimental findings from publication PMC4624480 (Biochemistry, 2015) are described below.

In brackets after ≈: the same amount, converted by molar mass. Where only a bound is given, the exact number is not on record here.

Data set [1] deals with B. subtilis (ATCC 6057). Description: Antibacterial activity. The format is cell-based.
For data set [2], the system named is methicillin-resistant S. aureus (ATCC BAA-1762). Put plainly: Antibacterial activity. Format: cell-based.
Data set [3] concerns M. tuberculosis (H37Rv). Put plainly: Antibacterial activity. Format: cell-based.
The subject of data set [4] is methicillin-resistant S. aureus (ATCC BAA-1762). Put plainly: Growth rescue: MIC with exogenous MK4, MRSA. Format: cell-based. As to conditions: exogenous 10 μg/mL MK4 added to the synthetic growth media.
For data set [5], the system named is M. tuberculosis (H37Rv). Description: Growth rescue: MIC with exogenous MK4, M. tuberculosis. The format is cell-based. As to conditions: exogenous 10 μg/mL MK4 added to the synthetic growth media.
The test system of data set [6] is Vero (monkey kidney epithelial) cells. Description: Cytotoxicity, Trypan Blue. Format: cell-based. To be noted: minimum concentration giving ~90% cell death.
Data set [7] has as its system menaquinone levels in S. aureus. Put plainly: Quantification of menaquinone levels by LC-MS/MS. Format: cell-based.
Data set [8] relates to B. subtilis, MRSA and M. tuberculosis. Put plainly: Antibacterial activity. To be noted: summary in text over B. subtilis, MRSA (S. aureus). Format: cell-based.
The test system of data set [9] is E. coli (K-12). Put plainly: Antibacterial activity. To be noted: aerobic, MIC-99 by visual inspection.
Data set [10] addresses ecMenE (wild-type) (Escherichia coli, UniProt P37353). Description: Isothermal titration calorimetry, wild-type ecMenE. To be noted: ITC, wt ecMenE. For orientation: ITC needs no label: the signal is the heat of the interaction.
The target in data set [11] is E. coli MenE (ecMenE) (Escherichia coli, UniProt P37353). The format is biochemical.
Data set [12] is described as follows: pKa of the OSB analogue. As to conditions: pKa of the OSB analogue (side chain).

Sequence of ecMenE (wild-type) (P37353 whole entry): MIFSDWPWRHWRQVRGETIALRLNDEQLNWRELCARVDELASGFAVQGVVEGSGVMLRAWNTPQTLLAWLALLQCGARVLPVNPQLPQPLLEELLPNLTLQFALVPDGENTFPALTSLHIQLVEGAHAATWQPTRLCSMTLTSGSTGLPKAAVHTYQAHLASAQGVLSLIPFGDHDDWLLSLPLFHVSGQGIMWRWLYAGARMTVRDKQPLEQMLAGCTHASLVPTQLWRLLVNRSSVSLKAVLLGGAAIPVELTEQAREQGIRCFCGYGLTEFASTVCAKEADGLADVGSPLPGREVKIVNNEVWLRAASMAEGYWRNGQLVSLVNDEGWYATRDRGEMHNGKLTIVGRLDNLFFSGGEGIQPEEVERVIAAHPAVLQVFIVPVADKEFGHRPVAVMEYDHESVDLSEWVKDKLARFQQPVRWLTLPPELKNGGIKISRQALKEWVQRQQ
Sequence of E. coli MenE (ecMenE) (P37353 whole entry): as above

What is called MIC is the smallest concentration in the dilution series that meets the test's criterion for growth inhibition. In general, Kd refers to the concentration at which binding is half-saturated. Consider `Nc1ncnc2c1ncn2[C@@H]1O[C@H](COS(=O)(=O)NC(=O)CCC(=O)c2ccccc2C(=O)O)[C@@H](O)[C@H]1O` [compound 1, OSB-AMS], for which the MIC is 62.5 µg/mL (≈ 114 µM) in data set [1]; 31.25 µg/mL (≈ 56.8 µM) in data set [2] (MRSA (ATCC BAA-1762)); 125 µg/mL (≈ 227 µM) in data set [3]; 30 to 125 µg/mL in [8]; more than 500 µg/mL in data set [9]. For the same compound, in [2] (antibacterial activity vs enzyme IC50), the “antibacterial activity lower than the IC50 for enzyme inhibition” value is listed as ~ 1000 fold. For the same compound, the “MIC + MK4” value in data set [4] and in [5] was more than 250 µg/mL throughout. In addition, the Cytotoxicity in [6] turned out to be 125 µg/mL. In data set [7] (MRSA, 15.6 μM OSB-AMS (half-MIC)), the “decrease in MK levels” value is recorded as ~ 60%. The “decrease in the levels of all menaquinones” value in data set [7] (S. aureus treated with OSB-AMS below its MIC) is recorded as 3–5 fold. Also, the ΔG in data set [10] is -10.0 kcal/mol. In data set [10], this compound showed a ΔH of -2.0 ± 0.1 kcal/mol. In addition, the Kd in [10] (read-out: Kd OSB-AMS) was found to be 44 ± 11 nM.
By pKa is commonly meant the pH at which an ionisable group is half protonated. Take MSB-AMS [compound 2]: in [11], the “effect on MenE activity” value is on record as “did not affect MenE activity” and the “inhibition of ecMenE” value is “no inhibition”. Moreover, the pKa in data set [12] was 4.
As a reminder, the Km is the concentration of substrate that gives half-maximal velocity. One may read the kcat as the number of substrate molecules converted per active site and unit of time at saturation. With `O=C(O)CCC(=O)c1ccccc1C(=O)O` [OSB, o-succinylbenzoate], the Km in [11] (read-out: KM OSB, wt ecMenE, pH 7.4, 25°C) is 1 ± 0.02 µM. The kcat in data set [11] (wt ecMenE, substrate OSB) came to 0.767 ± 0.002 s⁻¹.
